Structures can show the parent of a compound that is named as a salt. Where two headings read alike, the source gives them in different places.
Molecular target: T1, human hNET (Homo sapiens, UniProt P23975)
T1 construct: expressed in transfected cells; host or cells: MDCK-Net6 (MDCK cells, stably transfected)
Experiment: Norepinephrine (NE) uptake assay in MDCK-Net6 cells
Type: cell-based
Details: for inhibition at 10 µM: 10 μM test compound (stated in the cell)
Method: Cells were plated at 300,000/T75 flask and cells were split twice weekly. […] Cells were plated at 250,000 cells/T75 flask and split twice weekly.
Norepinephrine (NE) Uptake Assay
On day 1, cells were plated at 3,000 cells/well in growth medium and maintained in a cell incubator (37° C., 5% CO2). On day 2, growth medium was replaced with 200 μl of assay buffer (25 mM HEPES; 120 mM NaCl; 5 mM KCl; 2.5 mM CaCl2; 1.2 mM MgSO4; 2 mg/ml glucose (pH 7.4, 37° C.)) containing 0.2 mg/ml ascorbic acid and 10 μM pargyline. Plates containing cells with 200 μl of assay buffer were equilibrated for 10 minutes at 37° C. prior to addition of compounds. A stock solution of desipramine was prepared in DMSO (10 mM) and delivered to triplicate wells containing cells for a final test concentration of 1 μM. Data from these wells were used to define non-specific NE uptake (minimum NE uptake). Test compounds were prepared in DMSO (10 mM) and diluted in assay buffer according to test range (1 to 10,000 nM). Twenty-five microliters of assay buffer (maximum NE uptake) or test compound were added directly to triplicate wells containing cells in 200 μl of assay buffer. The cells in assay buffer with test compounds were incubated for 20 minutes at 37° C. […] The reaction was terminated by decanting the supernatant from the plate. The plates containing cells were washed twice with 200 μl assay buffer (37° C.) to remove free radioligand. The plates were then inverted, left to dry for 2 minutes, then reinverted and air-dried for an additional 10 minutes. The cells were lysed in 25 μl of 0.25 N NaOH solution (4° C.), placed on a shake table and vigorously shaken for 5 minutes. After cell lysis, 75 μl of scintillation cocktail was added to each well and the plates were sealed with film tape. The plates were returned to the shake table and vigorously shaken for a minimum of 10 minutes to ensure adequate partitioning of organic and aqueous solutions. The plates were counted in a Wallac Microbeta counter (PerkinElmer) to collect the raw cpm data.
For each experiment, a data stream of cpm values collected from the Wallac Microbeta counter was downloaded to a Microsoft Excel statistical application program. Calculations of EC50 values were made using the transformed-both-sides logistic dose response program written by Wyeth Biometrics Department.

[1] = 1 μM test compound, [3H]NE uptake, read-out: % Inhibition @ 1 μM (hNET)

T1 sequence (P23975 whole entry): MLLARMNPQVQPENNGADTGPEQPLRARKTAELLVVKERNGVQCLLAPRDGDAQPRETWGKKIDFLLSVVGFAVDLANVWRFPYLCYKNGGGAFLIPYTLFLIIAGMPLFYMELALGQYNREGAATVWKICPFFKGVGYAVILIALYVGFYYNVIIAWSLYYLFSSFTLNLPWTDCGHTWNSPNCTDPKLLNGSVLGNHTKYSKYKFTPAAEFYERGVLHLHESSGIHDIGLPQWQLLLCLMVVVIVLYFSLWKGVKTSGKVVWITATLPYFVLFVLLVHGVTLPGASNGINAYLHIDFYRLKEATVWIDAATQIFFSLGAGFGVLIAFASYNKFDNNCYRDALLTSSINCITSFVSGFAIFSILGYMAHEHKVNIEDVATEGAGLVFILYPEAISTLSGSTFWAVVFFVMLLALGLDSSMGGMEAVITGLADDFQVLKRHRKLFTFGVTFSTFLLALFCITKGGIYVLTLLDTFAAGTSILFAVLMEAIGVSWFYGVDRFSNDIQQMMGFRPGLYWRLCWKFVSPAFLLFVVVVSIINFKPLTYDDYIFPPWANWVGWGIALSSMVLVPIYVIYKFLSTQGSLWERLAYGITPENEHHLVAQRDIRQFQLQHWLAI

Row | SMILES | inhibition at 1 µM [1] | also measured
1 | COc1ccc(-c2cccc(C(CN3CCNCC3)C3(O)CCCCC3)c2)cc1OC (stereo not drawn) [Example 250, 1-[1-(3′,4′-dimethoxy-1,1′-biphenyl-3-yl)-2-piperazin-1-ylethyl]cyclohexanol dihydrochloride] | 15% | 
2 | COc1ccc(C(CN2CCN(C)CC2)C2(O)CCCCC2)cc1-c1ccc(Cl)c(Cl)c1 (stereo not drawn) [Example 255, 1-[1-(3′,4′-dichloro-6-methoxy-1,1′-biphenyl-3-yl)-2-(4-methylpiperazin-1-yl)ethyl]cyclohexanol dihydrochloride] |  | inhibition at 10 µM ([3H]NE uptake): 70.7%
3 | COc1ccc(C(CN2CCN(C)CC2)C2(O)CCCCC2)cc1-c1cccc(OC(F)(F)F)c1 (stereo not drawn) [Example 256, 1-[1-[6-methoxy-3′-(trifluoromethoxy)-1,1′-biphenyl-3-yl]-2-(4-methylpiperazin-1-yl)ethyl]cyclohexanol dihydrochloride] |  | inhibition at 10 µM ([3H]NE uptake): 72.8%
4 | COc1ccc(C(CN2CCN(C)CC2)C2(O)CCCCC2)cc1-c1ccc(C(F)(F)F)cc1 (stereo not drawn) [Example 257, 1-[1-[6-methoxy-4′-(trifluoromethyl)-1,1′-biphenyl-3-yl]-2-(4-methylpiperazin-1-yl)ethyl]cyclohexanol dihydrochloride] | 17% | 
5 | OC1(C(CN2CCNCC2)c2ccc(OCc3ccccc3)c(C(F)(F)F)c2)CCCCC1 (stereo not drawn) [Example 263, 1-{1-[4-(benzyloxy)-3-(trifluoromethyl)phenyl]-2-piperazin-1-ylethyl}cyclohexanol dihydrochloride] | 31% | 
6 | CN1CCN(CC(c2ccc(OCc3ccccc3)c(C(F)(F)F)c2)C2(O)CCCCC2)CC1 (stereo not drawn) [Example 264, 1-[1-[4-(benzyloxy)-3-(trifluoromethyl)phenyl]-2-(4-methylpiperazin-1-yl)ethyl]cyclohexanol dihydrochloride] | 89% | 
7 | N#Cc1cc(C(CN2CCNCC2)C2(O)CCCCC2)ccc1OCc1ccccc1 (stereo not drawn) [Example 266, 2-(benzyloxy)-5-[1-(1-hydroxycyclohexyl)-2-piperazin-1-ylethyl]benzonitrile dihydrochloride] | 91% | 
8 | CN1CCN(CC(c2ccc(OCc3ccccc3)c(C#N)c2)C2(O)CCCCC2)CC1 (stereo not drawn) [Example 267, 2-(benzyloxy)-5-[1-(1-hydroxycyclohexyl)-2-(4-methylpiperazin-1-yl)ethyl]benzonitrile dihydrochloride] | 89% | 
9 | CN1CCN(CC(c2ccc(OC(F)(F)F)cc2)C2(O)CCCCC2)CC1 (stereo not drawn) [Example 283, 1-{2-(4-methylpiperazin-1-yl)-1-[4-(trifluoromethoxy)phenyl]ethyl}cyclohexanol dihydrochloride] |  | inhibition at 1 µM (MDCK-Net6, read-out: % Inhibition @ 1 μM (hNET), 1 μM test compound, [3H]NE uptake): 70.7%
10 | OC1(C(CN2CCN(CC3CCCCC3)CC2)c2ccc(OC(F)(F)F)cc2)CCCCC1 (stereo not drawn) [Example 286, 1-{2-[4-(cyclohexylmethyl)piperazin-1-yl]-1-[4-(trifluoromethoxy)phenyl]ethyl}cyclohexanol dihydrochloride] | 78.6% | 
11 | CCN1CCN(CC(c2ccc(OC(F)(F)F)cc2)C2(O)CCCCC2)CC1 (stereo not drawn) [Example 287, 1-{2-(4-ethylpiperazin-1-yl)-1-[4-(trifluoromethoxy)phenyl]ethyl}cyclohexanol dihydrochloride] | 60.8% | 
12 | C[C@@H]1CN(CC(c2ccc(OC(F)(F)F)cc2)C2(O)CCCCC2)C[C@H](C)N1 (stereo partly drawn) [Example 288, 1-{2-[cis-3,5-dimethylpiperazin-1-yl]-1-[4(trifluoromethoxy)phenyl]ethyl}cyclohexanol dihydrochloride] | 77.6% | 
13 | OC1(C(CN2CCNCC2)c2ccc(-c3cc(Cl)ccc3Cl)cc2)CCCCC1 (stereo not drawn) [Example 291, 1-[1-(2′,5′-dichloro-1,1′-biphenyl-4-yl)-2-piperazin-1-ylethyl]cyclohexanol dihydrochloride] | 40% | 
14 | CN1CCN(CC(c2ccc(-c3cccc(Cl)c3)cc2)C2(O)CCC2)CC1 (stereo not drawn) [Example 294, 1-[1-(3′-chloro-1,1′-biphenyl-4-yl)-2-(4-methylpiperazin-1-yl)ethyl]cyclobutanol dihydrochloride] |  | inhibition at 10 µM ([3H]NE uptake): 27.2%
15 | CN1CCN(CC(c2ccc(-c3cccc(OC(F)(F)F)c3)cc2)C2(O)CCC2)CC1 (stereo not drawn) [Example 295, 1-{2-(4-methylpiperazin-1-yl)-1-[3′-(trifluoromethoxy)-1,1′-biphenyl-4-yl]ethyl}cyclobutanol dihydrochloride] |  | inhibition at 10 µM ([3H]NE uptake): 2%

Now from value to compound, other results behind:

Row | inhibition at 1 µM [1] | SMILES | also measured
16 | 49% | CN1CCN(CC(c2cccc(-c3ccc(Cl)c(Cl)c3)c2)C2(O)CCCCC2)CC1 (stereo not drawn) [Example 247, 1-[1-(3′,4′-dichloro-1,1′-biphenyl-3-yl)-2-(4-methylpiperazin-1-yl)ethyl]cyclohexanol dihydrochloride] | 
17 | 7% | OC1(C(CN2CCNCC2)c2cccc(-c3cccc(OC(F)(F)F)c3)c2)CCCCC1 (stereo not drawn) [Example 248, 1-{2-piperazin-1-yl-1-[3′-(trifluoromethoxy)-1,1′-biphenyl-3-yl]ethyl}cyclohexanol dihydrochloride] | 
18 | 32% | OC1(C(CN2CCNCC2)c2cccc(-c3ccc(C(F)(F)F)cc3)c2)CCCCC1 (stereo not drawn) [Example 249, 1-{2-piperazin-1-yl-1-[4′-(trifluoromethyl)-1,1′-biphenyl-3-yl]ethyl}cyclohexanol dihydrochloride] | 
19 | 47% | COc1ccc(C(CN2CCNCC2)C2(O)CCCCC2)cc1-c1cccc(OC(F)(F)F)c1 (stereo not drawn) [Example 251, 1-{1-[6-methoxy-3′-(trifluoromethoxy)-1,1′-biphenyl-3-yl]-2-piperazin-1-ylethyl}cyclohexanol dihydrochloride] | 
20 | 35% | COc1ccc(C(CN2CCNCC2)C2(O)CCCCC2)cc1-c1ccc(Cl)c(Cl)c1 (stereo not drawn) [Example 252, 1-[1-(3′,4′-dichloro-6-methoxy-1,1′-biphenyl-3-yl)-2-piperazin-1-ylethyl]cyclohexanol dihydrochloride] | 
21 | 19% | COc1ccc(C(CN2CCNCC2)C2(O)CCCCC2)cc1-c1ccc(C(F)(F)F)cc1 (stereo not drawn) [Example 253, 1-{1-[6-methoxy-4′-(trifluoromethyl)-1,1′-biphenyl-3-yl]-2-piperazin-1-ylethyl}cyclohexanol dihydrochloride] | 
22 | 29% | COc1ccc(C(CN2CCNCC2)C2(O)CCCCC2)cc1-c1ccccc1 (stereo not drawn) [Example 254, 1-[1-(6-methoxy-1,1′-biphenyl-3-yl)-2-piperazin-1-ylethyl]cyclohexanol dihydrochloride] | 
23 | 44% | CN1CCN(CC(c2ccc(OCc3ccccc3)c(Br)c2)C2(O)CCCCC2)CC1 (stereo not drawn) [Example 265, 1-[1-[4-(benzyloxy)-3-bromophenyl]-2-(4-methylpiperazin-1-yl)ethyl]cyclohexanol dihydrochloride] | 
24 | 84% | OC1(C(CN2CCNCC2)c2ccc(OCc3ccccc3)c(OC(F)(F)F)c2)CCCCC1 (stereo not drawn) [Example 268, 1-{1-[4-(benzyloxy)-3-(trifluoromethoxy)phenyl]-2-piperazin-1-ylethyl}cyclohexanol dihydrochloride] | 
25 | 20% | OC1(C(CN2CCN(Cc3ccc4c(c3)OCO4)CC2)c2ccc(OC(F)(F)F)cc2)CCCCC1 (stereo not drawn) [Example 285, 1-{2-[4-(1,3-benzodioxol-5-ylmethyl)piperazin-1-yl]-1-[4-(trifluoromethoxy)phenyl]ethyl}cyclohexanol dihydrochloride] | 
26 | 34% | OC1(C(CN2CCNCC2)c2ccc(-c3ccccc3F)cc2)CCCCC1 (stereo not drawn) [Example 289, 1-[1-(2′-fluoro-1,1′-biphenyl-4-yl)-2-piperazin-1-ylethyl]cyclohexanol dihydrochloride] | 
27 | 36% | N#Cc1ccccc1-c1ccc(C(CN2CCNCC2)C2(O)CCCCC2)cc1 (stereo not drawn) [Example 290, 4′-[1-(1-hydroxycyclohexyl)-2-piperazin-1-ylethyl]-1,1′-biphenyl-2-carbonitrile dihydrochloride] | 
28 | 89% | OC1(C(CN2CCNCC2)c2ccc(OCc3ccccc3)c(Cl)c2)CCCCC1 (stereo not drawn) [Example 292, 1-{1-[4-(benzyloxy)-3-chlorophenyl]-2-piperazin-1-ylethyl}cyclohexanol dihydrochloride] | 
29 | 96% | CN1CCN(CC(c2ccc(OCc3ccccc3)c(Cl)c2)C2(O)CCCCC2)CC1 (stereo not drawn) [Example 293, 1-[1-[4-(benzyloxy)-3-chlorophenyl]-2-(4-methylpiperazin-1-yl)ethyl]cyclohexanol dihydrochloride] | 
30 | 13% | CN1CCN(CC(c2ccc(-c3ccc(Cl)c(Cl)c3)cc2)C2(O)CCC2)CC1 (stereo not drawn) [Example 296, 1-[1-(3′,4′-dichloro-1,1′-biphenyl-4-yl)-2-(4-methylpiperazin-1-yl)ethyl]cyclobutanol dihydrochloride] | 

Reference: patent publication US7550456B2, “Substituted aryl cycloalkanoyl derivatives and methods of their use” (Wyeth, priority 2003, dated 2009)
